Data as given in paper PMC6409614, “BmTudor-sn Is a Binding Protein of Destruxin A in Silkworm Bm12 Cells” (Toxins, 2019).
Non-standard residues stand in square brackets, D forms with d. Residues, ends and D or L forms follow the SMILES beside them. dLac(3-vinyl) = C=CC[C@@H](O)C(=O)O; NMeV = CN[C@H](C(=O)O)C(C)C; NMeA = CN[C@@H](C)C(=O)O; βAla = NCCC(=O)O

Experiments:
[1] = molecular target: T1, BmTudor-sn (Bombyx mori, UniProt D9N4J4); experiment: bio-layer interferometry (ForteBio OctetQK), protein immobilised on biosensor; type: binding
T1 construct: gene Tudor-SN; endogenous protein in Bm12 cells (CETSA); four staphylococcal nuclease domains and a Tudor domain
T1 sequence (D9N4J4 1-888): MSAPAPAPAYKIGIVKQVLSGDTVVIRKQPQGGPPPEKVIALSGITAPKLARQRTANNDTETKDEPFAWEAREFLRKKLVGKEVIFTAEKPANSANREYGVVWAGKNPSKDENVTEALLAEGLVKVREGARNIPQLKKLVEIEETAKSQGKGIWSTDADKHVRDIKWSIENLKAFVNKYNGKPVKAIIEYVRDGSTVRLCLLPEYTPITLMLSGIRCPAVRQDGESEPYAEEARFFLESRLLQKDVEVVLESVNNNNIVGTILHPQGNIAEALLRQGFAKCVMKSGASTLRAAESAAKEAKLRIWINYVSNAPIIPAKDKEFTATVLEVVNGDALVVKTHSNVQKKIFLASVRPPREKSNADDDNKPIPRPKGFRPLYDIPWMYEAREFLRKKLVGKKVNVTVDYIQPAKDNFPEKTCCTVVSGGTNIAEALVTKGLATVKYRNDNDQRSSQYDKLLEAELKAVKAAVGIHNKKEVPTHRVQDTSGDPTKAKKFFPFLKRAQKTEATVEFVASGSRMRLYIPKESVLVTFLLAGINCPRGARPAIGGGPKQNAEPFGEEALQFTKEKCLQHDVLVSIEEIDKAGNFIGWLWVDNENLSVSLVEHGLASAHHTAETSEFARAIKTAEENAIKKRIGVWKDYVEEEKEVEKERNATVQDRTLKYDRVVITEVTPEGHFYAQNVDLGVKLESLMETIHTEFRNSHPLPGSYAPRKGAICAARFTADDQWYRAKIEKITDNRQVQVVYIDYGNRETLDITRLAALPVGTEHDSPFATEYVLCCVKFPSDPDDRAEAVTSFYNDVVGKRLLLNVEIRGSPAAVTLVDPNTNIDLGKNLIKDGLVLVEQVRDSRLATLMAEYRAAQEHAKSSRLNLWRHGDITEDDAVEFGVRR

[2] = molecular target: T1, BmTudor-sn; experiment: cellular thermal shift assay (CETSA), western blot, endogenous protein in Bm12 cells; type: cell-based; conditions: 200 µg/mL DA; intact Bm12 cells heated at 37–58 °C
[3] = cited from earlier work
Description: (§1) DA has been previously reported to play a role in immune related pathways and in inducing the immunosuppression phenotype in insects. The majority of studies have focused on these roles, while few have addressed the mechanism of action in cells. […] Tudor-sn, a multifunctional protein, was reported to regulate do ...

[4] = tested on: V-ATPase; conditions: silkworm hemocytes; earlier work of the authors, no reference given; cited from earlier work
Description: as §1

[5] = molecular target: BmTudor-sn; experiment: Bio-Layer Interferometry (BLI), BmTudor-sn; type: binding, Bombyx mori; conditions: PBST (0.05% Tween20, 5% DMSO)
Protocol: (§2) All proteins were prepared by eukaryotic expression in the Sf9 cell line. These were tagged with His-tag and purified by nickel affinity chromatography. BLI analysis was performed on a ForteBio OctetQK System (K2, Pall Fortebio Corp, Menlo Park, CA, USA). Generally, the protein samples were coupled with a biosensor for immobilization. Serial not gradient dilutions of DA (500, 250, 125, 62.5, 31.25, 15.63, and 7.813 μM) were used for treatment. PBST buffer (0.05% Tween20, 5% DMSO) was used for the reference and dilution buffers. The working procedure was baseline for 60 s, association for 60 s, and dissociation for 60 s. Finally, the raw data were processed with Data Analysis Software (9.0, Pall Fortebio Corp, Menlo Park, CA, USA).

[6] = tested on: BmPiwi; experiment: Bio-Layer Interferometry (BLI), BmPiwi; type: binding, Bombyx mori; conditions: recombinant protein from Sf9 cells, DA 7.813-500 μM
Protocol: as §2

[7] = tested on: BmAGO2; experiment: Bio-Layer Interferometry (BLI), BmAGO2; type: binding, Bombyx mori; conditions: recombinant protein from Sf9 cells, DA 7.813-500 μM
Protocol: as §2

[8] = tested on: BmTudor-sn; experiment: Immunoblot after proteolysis, BmTudor-sn; type: cell-based, Bombyx mori; conditions: Bm12 cell extracts from different DA treatments, proteinase K, western blot
Protocol: (§3) The Bm12 cell line was used to conduct the CETSA and immunoblot experiments. Cells were treated with DA. For immunoblotting, cell extracts from different DA treatments, collected after incubation with RIPA lysis buffer, were digested with proteinase K and then heated in water at 90 °C for 5 min. Samples were analyzed using SDS-PAGE and transferred to PVDF membranes. The membranes were then incubated in skim milk powder, followed by incubation with primary and HRP antibodies. ECL was added to the chemiluminescence reaction. For CETSA, Bm12 cells, treated with 200 µg/mL DA, were divided into 8 aliquots, heated at 37–58 °C, and lysed by a freeze-thaw cycle. The supernatants of the lysed cells were used for the western blot analysis as described above.

[9] = tested on: BmTudor-sn; experiment: Cellular thermal shift assay (CETSA), BmTudor-sn; type: cell-based, Bombyx mori; conditions: Bm12 cells
Protocol: as §3

[10] = tested on: BmPiwi; experiment: Cellular thermal shift assay (CETSA), BmPiwi; type: cell-based, Bombyx mori; conditions: Bm12 cells, DA 200 µg/mL, 37–58 °C, freeze-thaw lysis, western blot of supernatant
Protocol: as §3

[11] = tested on: BmAGO2; experiment: Cellular thermal shift assay (CETSA), BmAGO2; type: cell-based, Bombyx mori; conditions: Bm12 cells, DA 200 µg/mL, 37–58 °C, freeze-thaw lysis, western blot of supernatant
Protocol: as §3

[12] = tested on: Bm12 cells; experiment: RNAi and viability assessment under DA treatment; type: cell-based, silkworm (Bombyx mori)
Protocol: SiRNAs were prepared by synthesis in vitro. The sequence of BmTudor-sn siRNA is 5ʹ-[…]-3ʹ and 5ʹ-[…]-3ʹ. SiRNA and FuGENE transfection reagent were each diluted in serum-free medium and then mixed. The mixture was added to Bm12 cells after the DA treatment. Viability and toxicity assessment were performed following the manufacturer’s instructions.

[13] = tested on: BmTudor-sn with BmAGO1; experiment: Insect two-hybrid (I2H), interaction of BmTudor-sn and mutants with BmAGO1; type: cell-based, Bombyx mori; conditions: Sf9 cells, luciferase; for mutants with signal different from wild type: p < 0.05, DMRT
Protocol: BmTudor-sn and mutants were cloned into the I2H vector pIE-AD, and BmAGO1 was cloned into the I2H vector pIE-DBD using the Gateway system. These vectors and the luciferase vector were co-transfected into the Sf9 cell line and treated with DA at 0.02 and 0.2 µg/mL. The luciferase activities in the cell extracts were determined using a Luciferase Reporter Assay System (Promega, Beijing, China) and Synergy™ H1 (BioTek, Winooski, VT, USA).

[14] = tested on: BmTudor-sn; experiment: Transcriptional level of BmTudor-sn; type: cell-based, Bombyx mori; conditions: by DA; method not described
[15] = tested on: BmPiwi; experiment: Transcriptional level of BmPiwi; type: cell-based, Bombyx mori; conditions: by DA; method not described
[16] = tested on: BmAGO2; experiment: Transcriptional level of BmAGO2; type: cell-based, Bombyx mori; conditions: by DA; method not described
[17] = tested on: BmTudor-sn; conditions: Bm12 cells; specific proteinase; earlier DARTS analysis of the authors; reference not given; cited from earlier work
Description: Molecular docking is a reasonable, efficient, and convenient strategy to narrow down candidates among all proteins compared to other methods such as heterologous expression and kinetic analysis, which require verification one by one. However, it seems paradoxical in this study that proteins with the top docking scores were not the binding protein [24]. Actually, docking is a completely theoretical speculation, and other experiments are required to draw a conclusion. H ...

[18] = tested on: HSP; conditions: in vitro molecular interaction validation; cited from earlier work
Description: (§4) Destruxins are cyclodepsipeptidic mycotoxins, and there are 39 analogues. […] Because of the immunosuppression activity of DA in insects, the majority of studies have focused on the mechanism of action of the effect of DA on the immune-related pathway or st ...

[19] = tested on: heat shock proteins (HSPs); conditions: cultured cells (Bm12), DARTS; cited from earlier work
Description: as §4

[20] = tested on: insects; conditions: cited from earlier work
Description: as §4

[21] = DA 0.02 or 0.2 µg/mL, by mutant site

## C=CC[C@H]1OC(=O)CCNC(=O)[C@H](C)N(C)C(=O)[C@H](C(C)C)N(C)C(=O)[C@H]([C@@H](C)CC)NC(=O)[C@@H]2CCCN2C1=O [DA, Destruxin A] (cyclo([dLac(3-vinyl)]PI[NMeV][NMeA][βAla])) [listing 1 of 2 here]
[1]
  Kd: 587 µM
[2]
  thermal stability shift: the thermal stability of BmTudor-sn increased following DA binding modification

## Destruxin B [DB]
[3]
  anti-cancer activity: clear anti-cancer activity
[4]
  sensitivity to V-ATPase compared with DA: more sensitive to V-ATPase than DA in silkworm hemocytes

## C=CC[C@H]1OC(=O)CCNC(=O)[C@H](C)N(C)C(=O)[C@H](C(C)C)N(C)C(=O)[C@H]([C@@H](C)CC)NC(=O)[C@@H]2CCCN2C1=O [DA, Destruxin A] (cyclo([dLac(3-vinyl)]PI[NMeV][NMeA][βAla])) [listing 2 of 2 here]
[5]; BLI, ForteBio OctetQK, His-tagged recombinant protein from Sf9 cells immobilized, association 60 s, dissociation 60 s, DA 7.813-500 μM, read-out: affinity constant KD
  Kd: 587 µM
[5]; BLI, DA 125, 250 and 500 µM
  interaction with DA: interacts with BmTudor-sn at concentrations of 125 µm, 250 µm, and 500 µm
[5]; DA 7.81 uM
  BLI Response: -0.0024
[5]; DA 15.6 uM
  BLI Response: -0.0035
[5]; DA 31.3 uM
  BLI Response: -0.0012
[5]; DA 62.5 uM
  BLI Response: 0.0001
[5]; DA 125 uM
  BLI Response: 0.0032
[5]; DA 250 uM
  BLI Response: 0.0086
[5]; DA 500 uM
  BLI Response: 0.0071
[6]
  interaction with DA: not BmPiwi or BmAGO2
[7]
  interaction with DA: not BmPiwi or BmAGO2
[8]
  protein stability under proteolysis (immunoblot): stable with DA treatment in a dosage-dependent manner under proteolysis
[9]; 200 µg/mL versus lower dose
  thermal stability (CETSA), dose dependence: BmTudor-sn showed thermal stability with the 200 µg/mL treatment and not at the lower dose
[9]; DA 200 µg/mL, 37–58 °C, freeze-thaw lysis, western blot of supernatant
  thermal stability (CETSA): thermal stability of BmTudor-sn increased following DA binding modification
[10]
  thermal stability shift (CETSA): no thermal stability shift in BmPiwi and BmAGO2
[11]
  thermal stability shift (CETSA): no thermal stability shift in BmPiwi and BmAGO2
[12]; Bm12 cells under DA treatment, * p < 0.05, t test
  viability of BmTudor-sn knock down cells: higher viability under DA treatment
[12]; Bm12 cells, BmTudor-sn siRNA, DA treatment
  increase in viability with BmTudor-sn knockdown: approximately 20%
[13]; DA 0.02 µg/mL
  mutants with signal different from wild type: 2 mutants, Ser707Ala and leu704Ala
[13]; DA 0.2 µg/mL
  mutants with signal different from wild type: 3 mutants, Ser701Ala, Leu704Ala, and Tyr708Ala
[13]; DA 0.02 and 0.2 µg/mL
  domain of differing mutants: in the Tudor domain (Ser707, Leu704, Ser701, Tyr708) rather than the SN3 (Lys492) and SN4 (Lys582) domains
  interaction site at both concentrations: interacts with BmTudor-sn at both concentrations at Leu704
[13]; [21]
  effect on BmTudor-sn/BmAGO1 pair interaction, impeded: impeded the protein pair interaction at Ser707 and Tyr708
  effect on BmTudor-sn/BmAGO1 pair interaction, promoted: promoted it at Leu704 and Ser701
[14]
  upregulation at the transcriptional level: 2-3 fold
[15]
  upregulation at the transcriptional level: 2-3 fold
[16]
  upregulation at the transcriptional level: 2-3 fold
[17]
  appearance of BmTudor-sn in DARTS: only appeared in the 200 µg/mL treatment with a specific proteinase and not at the lower dosage and with other proteinases
[18]
  binding to an HSP: binds to an HSP in vitro
[19]
  induction of heat shock proteins: greatly induced heat shock proteins (HSPs) in cultured cells
[20]
  insecticidal effect and anti-immunity activity: strong insecticidal effect and anti-immunity activity
